# From patent US20240309360A1, “TRANS-ACTIVATORS AND METHODS AND USE THEREOF” (THE GOVERNING COUNCIL OF THE UNIVERSITY OF TORONTO, priority 2021, published 2024)
# System: EGFP reporter (7×TetO array, basal CMV promoter) in HEK293T reporter cell line
# Test: TAD-seq pooled activation screen of 60-aa fragments fused to PYL1
# Assay type: cell-based, human
# Details: for Hit high GFP: high GFP population (top 1%); for logFC high GFP / logFC medium GFP: log 2 fold change of counts, 100 μM ABA 48 hours; for logFC high GFP: sorted high GFP cells (top 1%) vs unsorted cells; for logFC medium GFP: sorted medium GFP cells (top 2-5%) vs unsorted cells; for Hit medium GFP: medium GFP population (top 2-5%); call rule not given here
# Text: A fragment library of 75 activators identified in our screen was generated, using 60 amino-acid tiles every 20 aa such that every amino acid was represented by three different fragments (FIG. 3A). The pooled fragment library was fused to PYL1 and recruited to the same GFP reporter used in the original ORFeome screen (FIG. 3A). […] The GFP positive population was sorted into two independent replicates, and fragments in each population were quantified by sequencing. However, in contrast to the ORFeome screen, both high GFP cells (top 1%) and medium GFP cells (top 2-5%) were sorted to potentially identify transactivators of different strength.
# Activation domain tiling library generation. A tiling library was generated from 75 proteins identified as activators in the ORFeome screen. Oligonucleotides containing a 5′ adapter […] (SEQ ID NO: 23) and a 3′ adapter […] (SEQ ID NO: 24) to generate a 5′ adapter ([…]) (SEQ ID NO: 11) and a 3′ adapter ([…]) (SEQ ID NO: 12) were synthesized as pooled libraries (Twist Biosciences). 6×50 μl PCR reactions were set up using NEBNext Ultra II Q5 master mix (New England Biolabs) with 5 nM oligos as template. PCR conditions were optimized to find the lowest cycle with a clean visible product at the expected 300 bp length. The thermocycling condition was an initial 30 s at 98° C., then 2 cycles of 98° C. for 10 s, 63° C. for 20 s, and 72° C. for 15 s, followed by 10 more cycles of 98° C. for 10 s and 72° C. for 30 s with a final extension at 72° C. for 5 min. Primers were designed to have Gateway compatible flanking sequences. The resulting libraries were gel extracted by QIAgen gel extraction kit after loading on a 2% TAE gel for 2 hrs at 60V and subsequently cloned into pDONR221 using 20 separate BP reactions in total of 5 μl reactions. The entry plasmid pool was transformed after an overnight reaction into DHSalpha competent E. coli and incubated overnight on LB agar plates containing kanamycin ([…]). Colonies were collected and plasmid DNA purified. 20 LR reactions were then set up as described in the previous section. Each reaction was transformed into NEB 10-beta chemically competent E. coli and grown on LB agar plates containing carbenicillin ([…]) overnight at 30° C. Colonies were counted to ensure >200-fold coverage at each step of cloning, pooled and maxiprepped.
# Pooled activation screens. ORFeome and transactivation tiling libraries tagged at the C-terminus with PYL1 were packaged into lentiviral particles. A clonal EGFP reporter cell line stably co-expressing ABI-dCas9 and a gRNA targeting the promoter were transduced at low multiplicity of infection (MOI) with approximately 30% cell survival after puromycin (1 μg/mL) selection. Untransduced cells under the same condition were fully eliminated. Sufficient cells were transduced to maintain >500 fold coverage of the libraries. Recruitment was induced by treating cells with 100 μM abscisic acid (ABA, Sigma) for 48 hours. In parallel, a control batch of cells were treated with equal total volume of DMSO. Cells were then washed in PBS, treated with dissociation buffer (1 mM EDTA, 10 mM KCl, 150 mM NaCl, 5 mM sodium bicarbonate, 0.1% glucose) and resuspended in flow buffer (5 mM EDTA, 25 mM HEPES pH 7, 1% BSA, PBS). High GFP population for each library, top 1% for ORFeome and two bins of top 1% and the next 4% for the TAD screen, were sorted and their genomic DNA directly extracted using QIAmp DNA Blood Mini Kit (QIAGEN).
# TAD sequencing. Performed nested PCR on the purified genomic DNA using primers targeting T7 promoter and PYL1 of the backbone vector in the first step creating a ˜470 bp product. Products of the first reaction were then pooled and amplified for an additional 10 steps using primers targeting outside the Gateway sites creating a ˜300 bp product. Libraries were quantified on Qubit dsDNA Broad Range kit and paired-end sequenced on an Illumina MIseq with a custom PAGE-purified R1 sequencing primer. […]
Substance,Hit high GFP,logFC high GFP,logFC medium GFP,Hit medium GFP
ATF6-1: 60-aa TAD-seq fragment of ATF6 (MGEPAGVAGTMESPFSPGLFHRLDEDWDSALFAELGYFTDTDELQLEAANETYENNFDNL; listed as Homo sapiens),hit,3.145,1.563,hit
ATXN7L3-2: 60-aa TAD-seq fragment of ATXN7L3 (QEIYADLVEDSCLGFCFEVHRAVKCGYFFLDDTDPDSMKDFEIVDQPGLDIFGQVFNQWK; listed as Homo sapiens),,0.7654,0.8911,hit
SPDYE4-4: 60-aa TAD-seq fragment of SPDYE4 (SEEELEEELELERAPEPEDTWVVETLCGLKMKLKRKRASSVLPEHHEAFNRLLGDPVVQK; listed as Homo sapiens),hit,4.316,1.914,hit
NPAS4-34: 60-aa TAD-seq fragment of NPAS4 (PLGGLEPLDSNLSLSGAGPPVLSLDLKPWKCQELDFLADPDNMFLEETPVEDIFMDLSTP; listed as Homo sapiens),,0.946,0.9186,hit
HOXA2-5: 60-aa TAD-seq fragment of HOXA2 (RGSPVPAGALQPPEYPWMKEKKAAKKTALLPAAAAAATAAATGPACLSHKESLEIADGSG; listed as Homo sapiens),,1.684,2.311,hit
RELB-2: 60-aa TAD-seq fragment of RELB (RRVARPPAAPELGALGSPDLSSLSLAVSRSTDELEIIDEYIKENGFGLDGGQPGPGEGLP; listed as Homo sapiens),hit,2.147,1.711,hit
HOXA2-4: 60-aa TAD-seq fragment of HOXA2 (PGSHPRHGAGGRPKPSPAGSRGSPVPAGALQPPEYPWMKEKKAAKKTALLPAAAAAATAA; listed as Homo sapiens),,1.664,1.595,hit
FAM22F-22: 60-aa TAD-seq fragment of FAM22F (EKGKVEQPQEEDGITSDPGLLSYIDKLCSQEDFVTKVEAVIHPRFLEELLSPDPQMDFLA; listed as Homo sapiens),hit,4.76,2.325,hit
NPAS4-31: 60-aa TAD-seq fragment of NPAS4 (DVPLVPEGLLTPEASPVKQSFFHYSEKEQNEIDRLIQQISQLAQGMDRPFSAEAGTGGLE; listed as Homo sapiens),,1.22,0.8563,hit
HSF1-20: 60-aa TAD-seq fragment of HSF1 (KNELSDHLDAMDSNLDNLQTMLSSHGFSVDTSALLDLFSPSVTVPDMSLPDLDSSLASIQ; listed as Homo sapiens),,0.6234,0.7077,hit
RELB-3: 60-aa TAD-seq fragment of RELB (SSLSLAVSRSTDELEIIDEYIKENGFGLDGGQPGPGEGLPRLVSRGAASLSTVTLGPVAP; listed as Homo sapiens),hit,1.768,1.803,hit
CSRNP1-28: 60-aa TAD-seq fragment of CSRNP1 (DNIEAPHFPLPGLSPPGDASSCFLESLMGFSEPAAEALDPFIDSQFEDTVPASLMEPVPV; listed as Homo sapiens),,0.5029,0.6955,hit
ATMIN-32: 60-aa TAD-seq fragment of ATMIN (ETQTMSSGFETLGSLFFTSNETQTAMDDFLLADLAWNTMESQFSSVETQTSAEPHTVSNF; listed as Homo sapiens),,0.6355,0.8198,hit
ATXN7L3-4: 60-aa TAD-seq fragment of ATXN7L3 (FEIVDQPGLDIFGQVFNQWKSKECVCPNCSRSIAASRFAPHLEKCLGMGRNSSRIANRRI; listed as Homo sapiens),,0.7641,0.7514,hit
FAM22F-23: 60-aa TAD-seq fragment of FAM22F (LSYIDKLCSQEDFVTKVEAVIHPRFLEELLSPDPQMDFLALSQELEQEEGLTLAQLVEKR; listed as Homo sapiens),hit,5.822,0.2737,
MYCL1-1: 60-aa TAD-seq fragment of MYCL1 (MDYDSYQHYFYDYDCGEDFYRSTAPSEDIWKKFELVPSPPTSPPWGLGPGAGDPAPGIGP; listed as Homo sapiens),,1.137,0.7968,hit
ZXDC-16: 60-aa TAD-seq fragment of ZXDC (SLVVPSGGRPGPAPAAGVQCGAQGVQVQLVQDDPSGEGVLPSARGPATFLPFLTVDLPVY; listed as Homo sapiens),,0.4785,0.7293,hit
NPAS4-37: 60-aa TAD-seq fragment of NPAS4 (DPSEEWGSGDPEAEGPGGAPSPCNNLSPEDHSFLEDLATYETAFETGVSAFPYDGFTDEL; listed as Homo sapiens),hit,1.645,0.7019,
LIN9-25: 60-aa TAD-seq fragment of LIN9 (SRLTAILLQIKCLAEGGDLNSFEFKSLTDSLNDIKSTIDASNISCFQNNVEIHVAHIQSG; listed as Homo sapiens),hit,2.094,1.08,
JAZF1-1: 60-aa TAD-seq fragment of JAZF1 (MTGIAAASFFSNTCRFGGCGLHFPTLADLIEHIEDNHIDTDPRVLEKQELQQPTYVALSY; listed as Homo sapiens),,0.2848,0.6639,hit
ELF4-2: 60-aa TAD-seq fragment of ELF4 (DDIHQLEDPSVFPAVIVEQVPYPDLLHLYSGLELDDVHNGIITDGTLCMTQDQILEGSFL; listed as Homo sapiens),hit,1.467,1.364,hit
CITED2-11: 60-aa TAD-seq fragment of CITED2 (MPASVAHVPAAMLPPNVIDTDFIDEEVLMSLVIEMGLDRIKELPELWLGQNEFDFMTDFV; listed as Homo sapiens),hit,6.165,0.9491,
DDIT3-1: 60-aa TAD-seq fragment of DDIT3 (MAAESLPFSFGTLSSWELEAWYEDLQEVLSSDENGGTYVSPPGNEEEESKIFTTLDPASL; listed as Homo sapiens),hit,2.373,1.502,hit
MYCBP-1: 60-aa TAD-seq fragment of MYCBP (MAHYKAADSKREQFRRYLEKSGVLDTLTKVLVALYEEPEKPNSALDFLKHHLGAATPENP; listed as Homo sapiens),,1.017,0.73,hit
